Experimental data as given in patent US7417156B2, “Orally active, antimalarial, anticancer, artemisinin-derived trioxane dimers” (Johns Hopkins University, priority 2002, dated 2008).

Experiments:
SN12C = test: NCI 60 cell line panel screen (SRB); type: cell-based, human
HOP-92 = test: NCI 60 cell line panel screen (SRB); type: cell-based, human
OVCAR-5 = test: NCI 60 cell line panel screen (SRB); type: cell-based, human
A498 = test: NCI 60 cell line panel screen (SRB); type: cell-based, human
U251 = test: NCI 60 cell line panel screen (SRB); type: cell-based, human
UACC-62 = test: NCI 60 cell line panel screen (SRB); type: cell-based, human
ACHN = test: NCI 60 cell line panel screen (SRB); type: cell-based, human
SK-MEL-5 = test: NCI 60 cell line panel screen (SRB); type: cell-based, human
NCI-H226 = test: NCI 60 cell line panel screen (SRB); type: cell-based, human
SW-620 = test: NCI 60 cell line panel screen (SRB); type: cell-based, human
M14 = test: NCI 60 cell line panel screen (SRB); type: cell-based, human
SR = test: NCI 60 cell line panel screen (SRB); type: cell-based, human
HS 578T = test: NCI 60 cell line panel screen (SRB); type: cell-based, human
MDA-N = test: NCI 60 cell line panel screen (SRB); type: cell-based, human
[1] = tested on: Ehrlich ascites tumor (EAT) cells; conditions: MTT assay; cited from earlier work
KM12 = test: NCI 60 cell line panel screen (SRB); type: cell-based, human
[2] = tested on: P. vivax and P. falciparum; conditions: 2099 cases of malaria, different dosage forms; cited from earlier work
P. berghei = conditions: P. berghei-infected mice; cited from earlier work
HCC-2998 = test: NCI 60 cell line panel screen (SRB); type: cell-based, human

C[C@@H]1CC[C@H]2[C@@H](C)C(=O)O[C@@H]3O[C@]4(C)CC[C@@H]1[C@]32OO4 [Artemisinin]
Log10GI50 (SN12C; Renal Cancer, SN12C): −4.21 | Log10LC50 (SN12C; SN12C (Renal Cancer), LC50: PG=−50): >−4.00 log10M | Log10TGI50 (SN12C; SN12C (Renal Cancer), TGI: PG=0): >−4.00 log10M | Log10LC50 (HOP-92; HOP-92 (Non-Small Cell Lung Cancer), LC50: PG=−50): >−4.00 log10M | Log10TGI50 (HOP-92; HOP-92 (Non-Small Cell Lung Cancer), TGI: PG=0): >−4.00 log10M | Log10GI50 (HOP-92; Non-Small Cell Lung Cancer, HOP-92): >−4.00 | Log10LC50 (OVCAR-5; OVCAR-5 (Ovarian Cancer), LC50: PG=−50): >−4.00 log10M | Log10TGI50 (OVCAR-5; OVCAR-5 (Ovarian Cancer), TGI: PG=0): >−4.00 log10M | Log10GI50 (OVCAR-5; Ovarian Cancer, OVCAR-5): >−4.00 | Log10LC50 (A498; A498 (Renal Cancer), LC50: PG=−50): >−4.00 log10M | Log10TGI50 (A498; A498 (Renal Cancer), TGI: PG=0): >−4.00 log10M | Log10GI50 (A498; Renal Cancer, A498): >−4.00 | Log10GI50 (U251; CNS Cancer, U251): >−4.00 | Log10LC50 (U251; U251 (CNS Cancer), LC50: PG=−50): >−4.00 log10M | Log10TGI50 (U251; U251 (CNS Cancer), TGI: PG=0): >−4.00 log10M | Log10GI50 (UACC-62; Melanoma, UACC-62): >−4.00 | Log10LC50 (UACC-62; UACC-62 (Melanoma), LC50: PG=−50): >−4.00 log10M | Log10TGI50 (UACC-62; UACC-62 (Melanoma), TGI: PG=0): >−4.00 log10M | Log10LC50 (ACHN; ACHN (Renal Cancer), LC50: PG=−50): >−4.00 log10M | Log10TGI50 (ACHN; ACHN (Renal Cancer), TGI: PG=0): >−4.00 log10M | Log10GI50 (ACHN; Renal Cancer, ACHN): >−4.00 | Log10GI50 (SK-MEL-5; Melanoma, SK-MEL-5): >−4.10 | Log10TGI50 (SK-MEL-5; SK-MEL-5 (Melanoma), TGI: PG=0): >−4.00 log10M | Log10LC50 (NCI-H226; NCI-H226 (Non-Small Cell Lung Cancer), LC50: PG=−50): >−4.00 log10M | Log10TGI50 (NCI-H226; NCI-H226 (Non-Small Cell Lung Cancer), TGI: PG=0): >−4.00 log10M | Log10GI50 (NCI-H226; Non-Small Cell Lung Cancer, NCI-H226): >−4.00 | Log10GI50 (SW-620; Colon Cancer, SW-620): >−4.00 | Log10LC50 (SW-620; SW-620 (Colon Cancer), LC50: PG=−50): >−4.00 log10M | Log10TGI50 (SW-620; SW-620 (Colon Cancer), TGI: PG=0): >−4.00 log10M | Log10LC50 (M14; M14 (Melanoma), LC50: PG=−50): >−4.00 log10M | Log10TGI50 (M14; M-14 (Melanoma), TGI: PG=0): >−4.00 log10M | Log10GI50 (SR; Leukemia, SR): >−4.00 | Log10LC50 (SR; SR (Leukemia), LC50: PG=−50): >−4.00 log10M | Log10TGI50 (SR; SR (Leukemia), TGI: PG=0): >−4.00 log10M | Log10GI50 (HS 578T; Breast Cancer, HS 578T): >−4.00 | Log10LC50 (HS 578T; HS 578T (Breast Cancer), LC50: PG=−50): >−4.00 log10M | Log10TGI50 (HS 578T; HS 578T (Breast Cancer), TGI: PG=0): >−4.00 log10M | Log10GI50 (MDA-N; Breast Cancer, MDA-N): >−4.00 | Log10LC50 (MDA-N; MDA-N (Breast Cancer), LC50: PG=−50): >−4.00 log10M | Log10TGI50 (MDA-N; MDA-N (Breast Cancer), TGI: PG=0): >−4.00 log10M | IC50 [1]: 29.8 µM | Log10GI50 (KM12; Colon Cancer, KM12): >−4.00 | Log10LC50 (KM12; KM12 (Colon Cancer), LC50: PG=−50): >−4.00 log10M | Log10TGI50 (KM12; KM12 (Colon Cancer), TGI: PG=0): >−4.00 log10M | clinical outcome [2]: clinical cure of all patients | SD90 (P. berghei): 6.20 mg/kg | Log10GI50 (HCC-2998; Colon Cancer, HCC-2998): >−4.00 | Log10LC50 (HCC-2998; HCC-2998 (Colon Cancer), LC50: PG=−50): >−4.00 log10M | Log10TGI50 (HCC-2998; HCC-2998 (Colon Cancer), TGI: PG=0): >−4.00 log10M
